BindingDB's records for doi:10.7270/Q2057DDB (Nmmlsc, 2011)
pEC50: −log10 of the molar value.

target: T1, Vacuolar aminopeptidase 1 (Saccharomyces cerevisiae (strain ATCC 204508 / S288c), UniProt P14904); assay: LAP4-GFP modulation potency, analog picks, SAR follow-up, cell-based, cherry pick 3, flow cytometry (AID 488823); details: not given
T1 sequence (P14904 whole entry): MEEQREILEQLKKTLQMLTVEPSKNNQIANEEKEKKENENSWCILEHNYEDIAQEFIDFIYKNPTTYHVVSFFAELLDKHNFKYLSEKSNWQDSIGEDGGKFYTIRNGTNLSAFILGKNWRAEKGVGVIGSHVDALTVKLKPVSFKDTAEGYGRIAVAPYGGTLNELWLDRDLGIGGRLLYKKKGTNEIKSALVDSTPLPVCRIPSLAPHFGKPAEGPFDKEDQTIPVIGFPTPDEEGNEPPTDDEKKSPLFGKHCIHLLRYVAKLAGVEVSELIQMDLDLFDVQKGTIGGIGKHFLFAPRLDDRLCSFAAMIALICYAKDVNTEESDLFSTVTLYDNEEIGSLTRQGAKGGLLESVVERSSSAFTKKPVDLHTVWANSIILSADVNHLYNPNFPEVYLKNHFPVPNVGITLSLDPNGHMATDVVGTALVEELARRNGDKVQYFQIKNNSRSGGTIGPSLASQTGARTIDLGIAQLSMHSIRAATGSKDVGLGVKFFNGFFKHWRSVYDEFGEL

pEC50	SMILES
4.45	NC(=O)c1ccnc2c(O)cccc12 [8-hydroxyquinoline-4-carboxamide;2,2,2-trifluoroacetic acid]

same assay, conditions: inactive by the depositor's call

pEC50	SMILES
4.38	CCOC(=O)CS(=O)(=O)c1nc(-c2ccccc2)cc(C(F)(F)F)n1 [2-[4-phenyl-6-(trifluoromethyl)pyrimidin-2-yl]sulfonylacetic acid ethyl ester]
4.06	COc1cccc2c(Cl)c(CCCl)c(C)nc12 [MLS000720591]
3.68	Oc1ccc(Cl)c2cccnc12 [MLS002695956]
4.43	CCC(C)Nc1nc(N)c([N+](=O)[O-])c(Nc2cc(OC)ccc2OC)n1 (stereo not drawn) [N2-butan-2-yl-N4-(2,5-dimethoxyphenyl)-5-nitro-pyrimidine-2,4,6-triamine]
4.10	Cn1cccc1C(=O)Nc1nc(-c2ccccn2)cs1 [SMR000064459]
4.45	CCC(C)Nc1nc(N)c([N+](=O)[O-])c(Nc2ccccc2OC)n1 (stereo not drawn) [SMR000434817]
3.98	CCc1sc(C(=O)Nc2nc(-c3ccccn3)cs2)cc1C [SMR001314827]
